Source: US10023615B2, “Efficient transport into white blood cells” (priority 2008, dated 2018)
Ends that are not written are not given here.

Tested on: noise trauma (120 dB at 6 kHz)
Experiment: Treatment of noise trauma, auditory brainstem response
Assay type: in vivo, guinea pigs
Conditions: 100 μM in hyaluronic acid gel on round window membrane; before or after noise trauma
Method: 19. […] Untreated ears served as control. Hearing threshold shifts are evaluated by auditory brainstem response measurements 20 minutes after noise trauma (temporary threshold shift, TTS) and 15 days following the trauma (permanent threshold shift, PTS).

Substance: dqsrpvqpflnIttprkprpprrrqrrkkrg (DQSRPVQPFLNLTTPRKPRPPRRRQRRKKRG; not fully specified (some residues); printed as dqsrpvqpflnIttprkprpprrrqrrkkrg) [XG-102]
- permanent hearing loss (permanent threshold shift): protected against permanent hearing loss even if applied after exposure to excessive noise
